Measurements from patent US11999737B2, “Kinase inhibitors and related methods of use” (Duke University, priority 2014, dated 2024).

Tests used:
GFP-ZIPK = GFP-ZIPK (Homo sapiens, UniProt O43293); test: FLECS elution of GFP-ZIPK from γ-linked ATP Sepharose media; format: binding; details: titration from ATP Sepharose
PIM3-GFP = PIM3-GFP (Homo sapiens, UniProt Q86V86); test: FLECS elution of PIM3-GFP from γ-linked ATP Sepharose media; format: binding; details: titration from ATP Sepharose; calculated from EC50; read-out: apparent Kd, elution of PIM3-GFP

Sequence of GFP-ZIPK (O43293 whole entry): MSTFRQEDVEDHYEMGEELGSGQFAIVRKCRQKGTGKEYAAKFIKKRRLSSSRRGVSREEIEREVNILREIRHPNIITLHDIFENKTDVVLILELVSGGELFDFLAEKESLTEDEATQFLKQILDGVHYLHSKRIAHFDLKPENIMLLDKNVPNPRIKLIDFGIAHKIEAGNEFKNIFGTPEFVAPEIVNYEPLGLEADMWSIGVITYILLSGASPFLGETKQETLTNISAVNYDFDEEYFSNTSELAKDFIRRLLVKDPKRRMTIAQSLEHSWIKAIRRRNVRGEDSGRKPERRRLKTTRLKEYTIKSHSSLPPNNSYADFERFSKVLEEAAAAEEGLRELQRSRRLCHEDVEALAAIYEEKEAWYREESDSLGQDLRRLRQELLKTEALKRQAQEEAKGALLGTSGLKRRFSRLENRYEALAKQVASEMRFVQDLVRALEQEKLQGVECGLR

Which “elution of full length GFP-ZIPK” value (GFP-ZIPK) does the source give for `O=S(=O)(c1cccc2c(I)cccc12)N1CCCNCC1` [ML-7, reference compound] here?
Its value is “failed to elute”.

What about the Kd (PIM3-GFP) of the same compound?
The Kd was 201 nM.
